# Structures can show the parent of a compound that is named as a salt.
# Tests used:
# [1] = tested on: lymphocytic leukemia P388; test: In vivo antitumor activity against P388 leukemia in mice; design: species or system mice (female CDF1); conditions: for prolongation of life-span in the P388-bearing mice / times less active than the parent compound in terms of minimum effective doses (MED): P388, Q1Dx3, ip; for times less active than the parent compound in terms of minimum effective doses (MED): relative to elsamicin A
# Protocol: (§1) Among the derivatives tested, in vivo antitumor activity of six derivatives showing relatively potent cytotoxicity was tested in the lymphocytic leukemia P388 and B16 melanoma systems. Female CDF1 (for P388) and male BDF1 (for B16) mice were inoculated by ip injection at 10^6 P388 cells and 0.5 ml of a 10% B16 brei per mouse, respectively (day 0). […] The percent increase of median survival time (MST) of treated animals over that of untreated control animals was determined and reported as T/C %. Compounds showing T/C % values of 125 or greater are considered to have significant antitumor activity. […] The others had no activity at the doses tested. Derivatives 4d, 4e, and 5 when tested in the B16 system, also gave 10-30 times less antitumor activity than elsamicin A in terms of MED (Table 5).
# [2] = tested on: murine melanoma B16-F10 cells; test: cells; conditions: Mus musculus, B16-F10, 72 h, read-out: Cytotoxicity IC50
# Protocol: For in vitro cytotoxicity experiment, murine melanoma B16-F10 cells were grown and maintained in Eagle's minimum essential medium (Nissui), which contains kanamycin (60 μg/ml), supplemented with heat-inactivated fetal calf serum (10%) and nonessential amino acids (0.6%) at 37° C. under a humidified atmosphere in a 5% CO2 incubator. Exponentially growing B16-F10 cells were harvested, counted and suspended in the culture medium at the concentration of 2.0×10^4 cells/ml. The cell suspension (180 μl) was planted into wells of a 96-well microtiter plate and incubated for 24 hours. Test compounds (20 μl) were added to the wells and the plates were further incubated for 72 hours. The cytotoxic activity was colorimetrically determined at 540 nm after staining viable cells with neutral red solution.
# [3] = tested on: B16 melanoma; test: In vivo antitumor activity against B16 melanoma in mice; design: species or system mice (male BDF1); conditions: B16, Q4Dx3 ip; relative to elsamicin A
# Protocol: as §1
SMILES,"T/C % of MST ([1]; P388, 20 mg/kg/day, Q1Dx3, ip)",IC50 [2] [µg/mL],prolongation of life-span in the P388-bearing mice [1],times less active than the parent compound in terms of minimum effective doses (MED) [1],times less antitumor activity than elsamicin A in terms of MED [3]
"CO[C@@H]1[C@@H](N)[C@@H](O[C@H]2[C@H](Oc3cccc4c(O)c5c(=O)oc6ccc(C)c7c(=O)oc(c34)c5c67)O[C@H](C)[C@H](O)[C@]2(C)O)O[C@H](C)[C@@H]1O [Compound 1, Elsamicin A]",Tox,–,–,–,–
"CO[C@H]1[C@@H](O)[C@@H](C)O[C@H](O[C@H]2[C@H](Oc3cccc4c(O)c5c(=O)oc6ccc(C)c7c(=O)oc(c34)c5c67)O[C@H](C)[C@H](O)[C@]2(C)O)[C@@H]1NC(C)=O [Compound 3a, 2""-N-Acetylelsamicin A]",–,55,–,–,–
"CO[C@H]1[C@@H](O)[C@@H](C)O[C@H](O[C@H]2[C@H](Oc3cccc4c(O)c5c(=O)oc6ccc(C)c7c(=O)oc(c34)c5c67)O[C@H](C)[C@H](O)[C@]2(C)O)[C@@H]1NC(=O)CCC(=O)O [Compound 3b, 2""-N-(3-Carboxypropionyl)elsamicin A]",–,56,–,–,–
"CO[C@H]1[C@@H](O)[C@@H](C)O[C@H](O[C@H]2[C@H](Oc3cccc4c(O)c5c(=O)oc6ccc(C)c7c(=O)oc(c34)c5c67)O[C@H](C)[C@H](O)[C@]2(C)O)[C@@H]1NC(=O)CN [Compound 3d, 2""-N-Glycylelsamicin A]",–,4.1,–,–,–
"CO[C@H]1[C@@H](O)[C@@H](C)O[C@H](O[C@H]2[C@H](Oc3cccc4c(O)c5c(=O)oc6ccc(C)c7c(=O)oc(c34)c5c67)O[C@H](C)[C@H](O)[C@]2(C)O)[C@@H]1NC(C)C [Compound 4a, 2""-N-Isopropylelsamicin A]",–,1.5,quite limited prolongation of life-span,10-30 times,–
"CN[C@H]1[C@@H](O[C@H]2[C@H](Oc3cccc4c(O)c5c(=O)oc6ccc(C)c7c(=O)oc(c34)c5c67)O[C@H](C)[C@H](O)[C@]2(C)O)O[C@H](C)[C@H](O)[C@@H]1OC [Compound 4d, 2""-N-Methylelsamicin A]",–,1.7,quite limited prolongation of life-span,10-30 times,10-30 times
"CO[C@H]1[C@@H](O)[C@@H](C)O[C@H](O[C@H]2[C@H](Oc3cccc4c(O)c5c(=O)oc6ccc(C)c7c(=O)oc(c34)c5c67)O[C@H](C)[C@H](O)[C@]2(C)O)[C@@H]1N(C)C [Compound 4e, 2""-N,N-Dimethylelsamicin A]",–,0.36,quite limited prolongation of life-span,10-30 times,10-30 times
"CO[C@H]1[C@@H](O)[C@@H](C)O[C@H](O[C@H]2[C@H](Oc3cccc4c(O)c5c(=O)oc6ccc(C)c7c(=O)oc(c34)c5c67)O[C@H](C)[C@H](O)[C@]2(C)O)[C@@H]1N1CCOCC1 [Compound 4f, 2""-Deamino-2""-morpholinoelsamicin A]",–,11,–,–,–
"CO[C@H]1[C@@H](O)[C@@H](C)O[C@H](O[C@H]2[C@H](Oc3cccc4c(O)c5c(=O)oc6ccc(C)c7c(=O)oc(c34)c5c67)O[C@H](C)[C@H](O)[C@]2(C)O)[C@@H]1NC=N [Compound 5, 2""-N-Formimidoylelsamicin A hydrochloride]",–,0.47,quite limited prolongation of life-span,10-30 times,10-30 times

# — patent US5237055A, “Chemical modification of 2"-amino group in elsamicin A” (Bristol-Myers Squibb Company, priority 1992, dated 1993)
